In test [1] the target is T1, S-adenosylmethionine synthase isoform type-2 (Homo sapiens, UniProt P31153). The experiment in a line: Inhibition of recombinant human MAT2A expressed in baculovirus infected Sf9 cells using L-methionine as substrate incubated for 60 mins followed by substrate addition and measured after 60 mins by S-adenosyl methionine assay kit method.
Test [2] relates to HCT-116. The experiment in a line: Antiproliferative activity against human HCT-116 cells harboring wild type […] assessed as reduction in cell growth incubated for 4 days by Cell Titer-Glo assay. It counts as functional, cell-based. Particulars: HCT-116, 96 h.
The subject of test [3] is HCT-116. Briefly: Antiproliferative activity against isogenic pair of human HCT-116 cells harboring […] del mutant assessed as reduction in cell growth incubated for 4 days by Cell Titer-Glo assay. It counts as cell-based. Particulars: HCT-116, 96 h.
Test [4] addresses T1, S-adenosylmethionine synthase isoform type-2. Briefly: Inhibition of MAT2A in human HCT-116 cells assessed as reduction in SAM incubated for 72 hrs by LC-MS/MS analysis. It counts as cell-based.

T1 sequence (P31153 whole entry, canonical isoform): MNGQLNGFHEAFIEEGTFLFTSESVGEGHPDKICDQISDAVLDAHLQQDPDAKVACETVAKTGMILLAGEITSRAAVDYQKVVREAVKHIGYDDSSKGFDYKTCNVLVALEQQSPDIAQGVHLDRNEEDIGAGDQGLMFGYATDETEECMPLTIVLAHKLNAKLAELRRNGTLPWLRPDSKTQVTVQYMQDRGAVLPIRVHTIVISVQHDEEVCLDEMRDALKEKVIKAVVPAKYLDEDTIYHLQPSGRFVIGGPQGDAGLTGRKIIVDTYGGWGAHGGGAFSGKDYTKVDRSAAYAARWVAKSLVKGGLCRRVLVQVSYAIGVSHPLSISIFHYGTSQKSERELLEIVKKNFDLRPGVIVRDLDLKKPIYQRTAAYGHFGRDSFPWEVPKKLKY

As a reminder, the IC50 is the midpoint of a concentration-inhibition curve. Regarding `[2H]C([2H])([2H])Oc1c2cc(-n3nc4ccc(OCC(F)F)nc4c(-c4ccc(OC(F)F)cc4)c3=O)ccc2nn1C`, the IC50 was below 100 nM in test [1], at least 100 nM in the test with HCT-116 [2], below 100 nM in the test on HCT-116 [3] and below 100 nM in test [4].
For `COc1ccc(-c2c(=O)n(-c3ccc4nn(C)cc4c3)nc3ccc(OCC(F)F)nc23)cn1`, the IC50 is below 100 nM in test [1], at least 100 nM in the test on HCT-116 [2], below 100 nM in the test with HCT-116 [3] and below 100 nM in test [4].
Consider `O=c1c(-c2ccc(OC(F)F)cc2)c2nc(OCC(F)F)ccc2nn1-c1ccc2ncsc2c1`, for which the IC50 (in test [1]; with HCT-116 [2]; in the test with HCT-116 [3]; in test [4]) was below 100 nM in each case.
Take `O=c1c(-c2ccc(OC(F)F)cc2)c2nc(OCC(F)F)ccc2nn1-c1ccc2c(c1)CCO2`: the concentration for half-maximal inhibition (IC50) was below 100 nM in test [1], at least 100 nM with HCT-116 [2], below 100 nM in the test with HCT-116 [3] and below 100 nM in test [4].
In the case of `Cn1cc2cc(-n3nc4ccc(OCC(F)(F)F)nc4c(-c4ccc(Cl)cc4)c3=O)ccc2n1`, the IC50 in test [1] is below 100 nM; with HCT-116 [2], at least 100 nM; in the test with HCT-116 [3], below 100 nM; in test [4] it was below 100 nM.
On to `CCOc1ccc2nn(-c3ccc4nn(C)cc4c3)c(=O)c(-c3ccc(OC)cc3)c2n1`, for which the 50% inhibitory concentration (IC50) in test [1] is below 100 nM; in the test on HCT-116 [2], at least 100 nM; with HCT-116 [3], below 100 nM; in test [4] it was below 100 nM.
As for `Cn1cc2cc(-n3nc4ccc(OCCC(F)(F)F)nc4c(-c4ccc(OC(F)F)cc4)c3=O)ccc2n1`, the IC50 was below 100 nM in test [1], at least 1000 nM in the test with HCT-116 [2], at least 100 nM in the test with HCT-116 [3] and at least 100 nM in test [4].
Turning to `Cn1cc2cc(-n3nc4ccc(SCC(F)(F)F)nc4c(-c4ccc(OC(F)F)cc4)c3=O)ccc2n1`, the 50% inhibitory concentration (IC50) is below 100 nM in test [1], at least 100 nM in the test with HCT-116 [2], below 100 nM in the test on HCT-116 [3] and below 100 nM in test [4].
Regarding `Cn1cc2cc(-n3nc4ccc(OCC(F)(F)F)nc4c(-c4ccc(OC(F)F)cc4)c3=O)ccc2n1`, the half-inhibitory concentration (IC50) was below 100 nM in test [1], at least 100 nM in the test on HCT-116 [2], below 100 nM with HCT-116 [3] and below 100 nM in test [4].
With `Cn1cc2cc(-n3nc4ccc(OCC(F)F)nc4c(-c4ccc(OC(F)F)cc4)c3=O)ccc2n1`, the half-maximal inhibitory concentration (IC50) in test [1] was below 100 nM; in the test on HCT-116 [2], at least 100 nM; in the test on HCT-116 [3], below 100 nM; in test [4], below 100 nM.

Values taken from ChEMBL document CHEMBL4715922, “Methionine Adenosyltransferase Inhibitors for the Treatment of Cancer” (ACS Med Chem Lett, 2021).
